We go through six compounds from BindingDB's records for doi:10.1021/acschembio.6b00357 (Uppsala University, 2016).

Holding throughout (assay): Radioligand Binding Assay
One experiment has as its target T1, Adenosine receptor A1 (Homo sapiens, UniProt P30542).
T1 sequence (P30542 whole entry): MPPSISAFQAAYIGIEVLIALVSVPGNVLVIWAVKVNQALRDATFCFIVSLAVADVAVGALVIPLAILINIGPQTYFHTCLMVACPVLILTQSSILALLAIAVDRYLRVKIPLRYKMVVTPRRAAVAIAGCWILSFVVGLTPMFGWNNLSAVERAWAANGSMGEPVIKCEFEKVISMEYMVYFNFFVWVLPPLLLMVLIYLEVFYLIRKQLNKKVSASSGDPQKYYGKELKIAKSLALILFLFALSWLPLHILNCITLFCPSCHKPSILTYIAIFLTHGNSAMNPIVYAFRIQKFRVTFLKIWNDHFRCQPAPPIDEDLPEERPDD
The method, then: (§1) Nonspecific binding was determined using adenosine-′-Nethyluronamideat 10 μM concentration.

The target of another experiment is Adenosine receptor A2a (Homo sapiens, UniProt P29274). How it is done:
as §1

For a further experiment, the target named is T2, Adenosine receptor A3 (Homo sapiens, UniProt P0DMS8).
T2 sequence (P0DMS8 whole entry): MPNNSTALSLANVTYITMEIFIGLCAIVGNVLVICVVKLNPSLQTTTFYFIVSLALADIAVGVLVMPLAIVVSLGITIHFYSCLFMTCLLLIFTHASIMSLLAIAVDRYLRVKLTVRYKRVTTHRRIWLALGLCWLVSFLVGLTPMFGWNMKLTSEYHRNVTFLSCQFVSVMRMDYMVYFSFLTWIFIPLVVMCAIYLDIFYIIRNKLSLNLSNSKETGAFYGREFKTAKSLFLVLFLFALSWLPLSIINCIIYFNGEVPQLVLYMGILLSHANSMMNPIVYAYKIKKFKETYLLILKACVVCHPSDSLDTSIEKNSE
The method, then:
as §1

Sequence of Adenosine receptor A2a (P29274 whole entry): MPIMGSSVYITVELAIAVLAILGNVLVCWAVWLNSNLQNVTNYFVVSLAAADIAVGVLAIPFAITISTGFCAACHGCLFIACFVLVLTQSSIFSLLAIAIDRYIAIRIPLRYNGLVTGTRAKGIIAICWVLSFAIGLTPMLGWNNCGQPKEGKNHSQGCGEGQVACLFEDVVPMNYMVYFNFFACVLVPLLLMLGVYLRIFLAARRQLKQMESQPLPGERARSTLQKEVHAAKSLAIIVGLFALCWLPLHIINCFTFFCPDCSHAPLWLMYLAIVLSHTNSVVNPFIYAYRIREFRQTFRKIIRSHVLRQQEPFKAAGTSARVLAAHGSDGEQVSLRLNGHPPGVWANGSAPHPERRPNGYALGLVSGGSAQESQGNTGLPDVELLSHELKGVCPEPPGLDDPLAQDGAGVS

With `Nc1ccnc2c1ncn2[C@@H]1O[C@H](CO)[C@@H](O)[C@H]1O` [1-DEAZA-ADENOSINE], the Ki (in general, a dissociation constant, usually derived from enzyme kinetics or from competition with a known ligand) at Adenosine receptor A1 was 84 nM; on Adenosine receptor A2a it was 645 nM; on Adenosine receptor A3, 583 nM.

Regarding `Nc1cccc2c1ncn2[C@@H]1O[C@H](CO)[C@@H](O)[C@H]1O` [Adenosine receptor agonist, 7], the inhibitory constant (Ki) on Adenosine receptor A3 came out at 823 nM. Turning to `Nc1nc(=O)[nH]c2c1ncn2[C@@H]1O[C@H](CO)[C@@H](O)[C@H]1O` [Adenosine receptor agonist, 9], the Ki on Adenosine receptor A1 turned out to be 467 nM; on Adenosine receptor A2a it was 495 nM; on Adenosine receptor A3, 348 nM.

On Adenosine receptor A3, `Cc1cn([C@@H]2O[C@H](CO)[C@@H](O)[C@H]2O)c(=O)nc1N` [Adenosine receptor agonist, 13] gave an inhibitory constant (Ki) of 8020 nM. This lies in the single-digit micromolar range.

For the compound `Nc1ncn([C@@H]2O[C@H](CO)[C@@H](O)[C@H]2O)c(=O)c1Cl` [Adenosine receptor agonist, 14], the figures for the Ki at Adenosine receptor A1 and on Adenosine receptor A3 were 359 nM and 557 nM, respectively. In the case of `Nc1nccc2c1ncn2[C@@H]1O[C@H](CO)[C@@H](O)[C@H]1O` [CAS_6736-58-9], at Adenosine receptor A1, affinity was put at a Ki of 461 nM.
